The values that follow come from patent US20230295130A1, “COMPOUND USEFUL AS CDK7 KINASE INHIBITOR AND USE THEREOF” (TYK MEDICINES, INC., priority 2020, published 2023).

Test [1] deals with CDK7/Cyclin H/MAT1 kinase (Homo sapiens (Human), UniProt P50613). In words: Enzyme activity test, mobility shift assay (Table 3). Type of test: biochemical. To be noted: 2 mM ATP, pre-incubated 0 and 60 minutes. The procedure: IC50 values of the compounds for CDK7 kinase were detected in Wuxi Biortus Biosciences Co. Ltd.
CDK7/Cyclin H/MAT1 kinase, sequence (P50613 whole entry): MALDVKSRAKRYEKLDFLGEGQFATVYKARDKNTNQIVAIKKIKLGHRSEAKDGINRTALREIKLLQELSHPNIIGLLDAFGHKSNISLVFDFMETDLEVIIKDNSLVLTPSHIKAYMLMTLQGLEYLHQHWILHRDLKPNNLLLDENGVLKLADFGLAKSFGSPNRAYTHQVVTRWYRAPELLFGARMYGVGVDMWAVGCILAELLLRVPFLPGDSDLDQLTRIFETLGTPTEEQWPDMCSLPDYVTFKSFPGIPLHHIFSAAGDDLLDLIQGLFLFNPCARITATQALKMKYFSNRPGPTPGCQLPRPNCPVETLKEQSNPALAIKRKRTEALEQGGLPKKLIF
CDK7/Cyclin H/MAT1 kinase, sequence (P51946 whole entry partner): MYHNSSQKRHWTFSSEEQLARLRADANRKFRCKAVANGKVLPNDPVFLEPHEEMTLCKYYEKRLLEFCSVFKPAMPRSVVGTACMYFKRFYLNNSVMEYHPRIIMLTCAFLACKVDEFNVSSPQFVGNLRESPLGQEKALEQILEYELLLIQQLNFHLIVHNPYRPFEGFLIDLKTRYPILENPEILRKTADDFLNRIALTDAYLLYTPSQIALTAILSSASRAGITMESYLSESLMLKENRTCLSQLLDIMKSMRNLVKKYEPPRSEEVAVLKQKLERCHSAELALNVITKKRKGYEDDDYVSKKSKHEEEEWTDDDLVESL
CDK7/Cyclin H/MAT1 kinase, sequence (P51948 whole entry partner): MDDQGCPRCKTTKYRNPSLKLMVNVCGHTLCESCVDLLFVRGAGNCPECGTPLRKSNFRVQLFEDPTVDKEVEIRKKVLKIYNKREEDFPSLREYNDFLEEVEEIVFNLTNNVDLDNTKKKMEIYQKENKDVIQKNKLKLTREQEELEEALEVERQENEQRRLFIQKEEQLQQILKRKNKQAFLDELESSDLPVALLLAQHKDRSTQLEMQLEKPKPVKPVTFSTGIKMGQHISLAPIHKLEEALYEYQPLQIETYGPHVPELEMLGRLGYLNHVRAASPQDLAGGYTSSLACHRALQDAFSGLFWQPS
The compound powder was dissolved in 100% DMSO to prepare a 10 mM storage solution. The storage solution was further diluted to 0.5 mM as the initial concentration, and continuously diluted 3 times to obtain 10 compound solutions with different concentrations. The compound and enzyme were pre-incubated for 0 minutes and 60 minutes, respectively, using duplicate detection.
was used as a positive control, using Mobility shift say method, to detect CDK kinase (such as CDK7, CDK9, CDK12 and CDK2) activity of the compound.

Test [2] concerns breast cancer cells MDA-MB 231. In words: Cell anti-proliferation experiment, MTT (Table 4). It counts as cell-based, human. To be noted: incubate 3 days. The text has this: (§1) Human breast cancer cells MDA-MB 231, MDA-MB453, ovarian cancer cells OVCAR3, colorectal cancer cells HCT-116 and lung cancer cells NCI-H209 were purchased from BNCC. DMEM medium (Bio-Channel), DMSO (dimethyl sulfoxide), MTT (thiazole blue), 0.25% EDTA-Tripsin (pancreatin digestive juice), 1×PBS (phosphate buffer, PH7.2), 96-well plate (Corning), fetal bovine serum (FBS), 10,000 U/mL penicillin-G/streptomycin, high-speed freezing centrifuge (EPPENDORF 5810R), enzyme-linked immunosorbent assay (Tecan Spark).
(§2) • A) Tumor cells were cultured to 80-90% density in DMEM (high sugar, containing 10% FBS and 100 U/mL penicillin-G/streptomycin) at 37° C., 5% CO2 and saturated humidity. • B) The culture medium was removed from the 10 cm culture dish. • C) Cells were washed with 10 ml 1×PBS. • D) 4 ml of 0.25% EDTA-Tripsin was added to an incubator to digest pancreatin for 5 minutes at 37° C. and 5% CO2, transferred to a 15 ml centrifuge tube, centrifuged for 5 minutes at 200 g, and supernatant was discarded to obtain cell precipitation. • E) The cell precipitation was resuspended with 4 ml DMEM medium, counted and adjusted to 50,000 cells/ml. • F) Cell suspension was added to a 96-well plate with a volume of 100 μL per well and cultured overnight in a 5% CO2 incubator at 37° C.
(§3) • A) Preparing the tested compound gradient dilution solution: TY 2600 1 mM, TY 2601 1 mM, TY-2648a 1 mM, TY-2648b 1 mM and TY-2650 1 mM storage solutions were prepared. Then 1.5 μl of storage solution was dissolved in 1.5 ml of DMSO-free culture solution, and then performed 3-fold continuous gradient dilution with 0.1% DMSO culture solution for a total of 9 concentrations. The concentrations of the diluted compound were as follows: • 333.33 nM, 111.11 nM, 37.03 nM, 12.35 nM, 4.15 nM, 1.37 nM, 0.46 nM, 0.15 nM • B) After full mixing, 100 μL of culture compound solution was taken to replace the culture solution in the cell culture plate, with 4 duplicated wells at each concentration; • C) The cells were transferred to incubator to incubate for 3 days.
(§4) • A) The cell culture plate was taken out and added with 5 mg/ml MTT 10 μL in the biosafety cabinet; • B) The cell culture plate was put back into the incubator and continued to incubate for 3 hours; • C) The cell culture plate was taken out to remove the culture solution, 100 μL isopropanol (containing 0.4 mM HCl, 0.1% NP-40) was added, shaking at room temperature for 30 minutes; • D) The absorbance value was measured at 570 nm on TECAN enzyme linked immunosorbent assay.

The test system of test [3] is breast cancer cells MDA-MB453. In words: Cell anti-proliferation experiment, MTT (Table 4). Type of test: cell-based, human. To be noted: incubate 3 days.
Excerpt: as §1, §2, §3, §4

The subject of test [4] is colorectal cancer cells HCT-116. In words: Cell anti-proliferation experiment, MTT (Table 4). It counts as cell-based, human. The following applies: incubate 3 days.
Excerpt: as §1, §2, §3, §4

In test [5] the test system is ovarian cancer cells OVCAR3. In words: Cell anti-proliferation experiment, MTT (Table 4). It counts as cell-based, human. The following applies: incubate 3 days.
Excerpt: as §1, §2, §3, §4

Take `CC1(C)CC[C@H](Nc2ncc(C(F)(F)F)c(-c3c[nH]c4c(P5(=O)CCCC5)c(C#N)ccc34)n2)CN1` [Example 01]: the IC50 in test [1] was less than 10 nM; in test [2] (Homo sapiens, MDA-MB-231, 72 h), 10 to 500 nM; in test [3] (Homo sapiens, MDA-MB-453, 72 h) it was 10 to 500 nM; in test [4] (Homo sapiens, HCT-116, 72 h) it was 10 to 500 nM; in test [5] (Homo sapiens, OVCAR-3, 72 h) it was 10 to 500 nM.

Regarding `CC1(C)CC[C@H](Nc2ncc(C(F)(F)F)c(-c3c[nH]c4c(P5(=O)CCCC5)nccc34)n2)CN1` [Example 14], the IC50 in test [1] is less than 10 nM; in test [2] (Homo sapiens, MDA-MB-231, 72 h), 10 to 500 nM; in test [3] (Homo sapiens, MDA-MB-453, 72 h), 10 to 500 nM; in test [4] (Homo sapiens, HCT-116, 72 h) it was 10 to 500 nM; in test [5] (Homo sapiens, OVCAR-3, 72 h) it was 10 to 500 nM.

As to `COC(=O)Nc1ccc2c(-c3nc(N[C@H]4CCC(C)(C)NC4)ncc3C(F)(F)F)c[nH]c2c1P1(=O)CCCC1` [Example 20], the half-maximal inhibitory concentration (IC50) is less than 10 nM in test [1]; 10 to 500 nM in test [2] (Homo sapiens, MDA-MB-231, 72 h); 10 to 500 nM in test [3] (Homo sapiens, MDA-MB-453, 72 h); 10 to 500 nM in test [4] (Homo sapiens, HCT-116, 72 h); 10 to 500 nM in test [5] (Homo sapiens, OVCAR-3, 72 h).

Take `CC1(C)CC[C@H](Nc2ncc(C(F)(F)F)c(-n3cnc4c(P(C)(C)=O)c(C#N)ccc43)n2)CN1` [Example 31]: the IC50 in test [1] was less than 10 nM; in test [2], 10 to 500 nM; in test [3] it was 10 to 500 nM; in test [4] it was 10 to 500 nM; in test [5], 10 to 500 nM.

In the case of `CP(C)(=O)c1c(C#N)ccc2c(-c3nc(N[C@H]4CCC(=O)NC4)ncc3C(F)(F)F)c[nH]c12` [Example 48], the IC50 in test [1] was less than 10 nM; in test [2] (Homo sapiens, MDA-MB-231, 72 h), 10 to 500 nM; in test [3] (Homo sapiens, MDA-MB-453, 72 h), 10 to 500 nM; in test [4] (Homo sapiens, HCT-116, 72 h), 10 to 500 nM; in test [5] (Homo sapiens, OVCAR-3, 72 h) it was 10 to 500 nM.

The term IC50 denotes the concentration that inhibits the measured activity by half.
